Measurements as given in ChEMBL document CHEMBL3045001, “Synthesis and evaluation of analgesic, anti-inflammatory, and anticancer activities of new pyrazole-3(5)-carboxylic acid derivatives” (Med Chem Res, 2013).

Assays:
Mus musculus [1] = species: Mus musculus; test: Acute toxicity against Mus musculus Swiss albino (mouse) assessed as morbidity after 48 hr; assay type: organism-based; settings: in vivo
Mus musculus [2] = species: Mus musculus; test: Acute toxicity against Mus musculus Swiss albino (mouse) assessed as mortality after 48 hr; assay type: organism-based; settings: in vivo
Mus musculus [3] = test: Anti-inflammatory activity in carrageenan-induced Mus musculus Swiss albino (mouse) paw edema model assessed as paw swelling at 100 mg/kg, sc administered 30 min prior to carrageenan injection measured after 270 min (rvb = 75.0 +/-3.0 x10'-2 mm); assay type: functional; settings: route subcutaneous
Mus musculus [4] = test: Anti-inflammatory activity in carrageenan-induced Mus musculus Swiss albino (mouse) paw edema model assessed as inhibition of paw edema at 100 mg/kg, sc administered 30 min prior to carrageenan injection measured after 360 min; assay type: functional; settings: route subcutaneous
Mus musculus [5] = test: Anti-inflammatory activity in carrageenan-induced Mus musculus Swiss albino (mouse) paw edema model assessed as inhibition of paw edema at 100 mg/kg, sc administered 30 min prior to carrageenan injection measured after 270 min; assay type: functional; settings: route subcutaneous
Mus musculus [6] = test: Anti-inflammatory activity in carrageenan-induced Mus musculus Swiss albino (mouse) paw edema model assessed as inhibition of paw edema at 100 mg/kg, sc administered 30 min prior to carrageenan injection measured after 180 min; assay type: functional; settings: route subcutaneous
Mus musculus [7] = test: Anti-inflammatory activity in carrageenan-induced Mus musculus Swiss albino (mouse) paw edema model assessed as inhibition of paw edema at 100 mg/kg, sc administered 30 min prior to carrageenan injection measured after 90 min; assay type: functional; settings: route subcutaneous
Mus musculus [8] = test: Anti-inflammatory activity in carrageenan-induced Mus musculus Swiss albino (mouse) paw edema model assessed as paw swelling at 100 mg/kg, sc administered 30 min prior to carrageenan injection measured after 360 min (reference value: 77.0 +/-3.0 x10'-2 mm); assay type: functional; settings: route subcutaneous
Mus musculus [9] = test: Anti-inflammatory activity in carrageenan-induced Mus musculus Swiss albino (mouse) paw edema model assessed as paw swelling at 100 mg/kg, sc administered 30 min prior to carrageenan injection measured after 180 min (reference value: 51.0 +/-3.0 x10'-2 mm); assay type: functional; settings: route subcutaneous
Mus musculus [10] = test: Anti-inflammatory activity in carrageenan-induced Mus musculus Swiss albino (mouse) paw edema model assessed as paw swelling at 100 mg/kg, sc administered 30 min prior to carrageenan injection measured after 90 min (reference value: 38.0 +/-2.0 x10'-2 mm); assay type: functional; settings: route subcutaneous
Mus musculus [11] = test: Analgesic activity in Mus musculus Swiss albino (mouse) assessed as inhibition of p-benzoquinone-induced abdominal writhing at 100 mg/kg, sc administered 30 min prior to PBQ injection measured after 5 min for 15 min; assay type: functional, Abdomen; parameters: scale not given: the % may be the effect or the level left; settings: route subcutaneous
HeLa [12] = test: Anticancer activity against Homo sapiens (human) HeLa cells assessed as cell viability at 50 uM after 24 hr by MTT assay (reference value: 100 +/-4.13%); assay type: functional; settings: read-out: Activity
MDA-MB-231 [13] = test: Anticancer activity against Homo sapiens (human) estrogen-independent MDA-MB-231 cells assessed as cell viability at 50 uM after 48 hr by MTT assay (reference value: 100 +/-3.71%); assay type: functional; settings: MDA-MB-231, 48 h, read-out: Activity
HL-60 [14] = test: Anticancer activity against Homo sapiens (human) HL60 cells assessed as cell viability at 50 uM after 48 hr by MTT assay (reference value: 100 +/-8.41%); assay type: functional; settings: HL-60, 48 h, read-out: Activity
HL-60 [15] = test: Anticancer activity against Homo sapiens (human) HL60 cells assessed as cell viability at 50 uM after 24 hr by MTT assay (reference value: 100 +/-3.55%); assay type: functional; settings: HL-60, 24 h, read-out: Activity
MCF7 [16] = test: Anticancer activity against Homo sapiens (human) MCF7 cells assessed as cell viability at 50 uM after 48 hr by MTT assay (100 +/-5.08%); assay type: functional; settings: MCF7, 48 h, read-out: Activity
MCF7 [17] = test: Anticancer activity against Homo sapiens (human) MCF7 cells assessed as cell viability at 50 uM after 24 hr by MTT assay (reference value: 100 +/-2.74%); assay type: functional; settings: MCF7, 24 h, read-out: Activity
Raji [18] = test: Anticancer activity against Homo sapiens (human) Raji cells assessed as cell viability at 50 uM after 48 hr by MTT assay (reference value: 100 +/-4.26%); assay type: functional; settings: read-out: Activity
Raji [19] = test: Anticancer activity against Homo sapiens (human) Raji cells assessed as cell viability at 50 uM after 24 hr by MTT assay (reference value: 100 +/-5.02%); assay type: functional; settings: read-out: Activity
HeLa [20] = test: Anticancer activity against Homo sapiens (human) HeLa cells assessed as cell viability at 50 uM after 48 hr by MTT assay (reference value: 100 +/-3.8%); assay type: functional; settings: read-out: Activity
MDA-MB-231 [21] = test: Anticancer activity against Homo sapiens (human) estrogen-independent MDA-MB-231 cells assessed as cell viability at 50 uM after 24 hr by MTT assay (reference value: 100 +/-7.08%); assay type: functional; settings: MDA-MB-231, 24 h, read-out: Activity

SMILES | Activity (Mus musculus [1]) | Activity (Mus musculus [2]) | Activity (Mus musculus [3]) | inhibition in vivo at 100 mg/kg (Mus musculus [4]) | inhibition in vivo at 100 mg/kg (Mus musculus [5]) | inhibition in vivo at 100 mg/kg (Mus musculus [6]) | Activity (Mus musculus [8]) | Activity (Mus musculus [9]) | Activity (Mus musculus [10]) | Activity (Mus musculus [11]) | viability at 50 µM (HeLa [12]) | viability at 50 µM (MDA-MB-231 [13]) | viability at 50 µM (HL-60 [14]) | viability at 50 µM (HL-60 [15]) | viability at 50 µM (MCF7 [16]) | viability at 50 µM (MCF7 [17]) | viability at 50 µM (Raji [18]) | viability at 50 µM (Raji [19]) | viability at 50 µM (HeLa [20]) | viability at 50 µM (MDA-MB-231 [21]) | further results
COc1ccc(CN2CCN(C(=O)c3cc(-c4ccc(C)cc4)nn3Cc3ccccc3)CC2)c(OC)c1OC | Non-toxic | Non-toxic | 19 ×10⁻² mm | 53.3% | 74.4% | 44.7% | 36 ×10⁻² mm | 28 ×10⁻² mm | 31 ×10⁻² mm | 53% |  |  |  |  |  |  |  |  |  |  | inhibition in vivo at 100 mg/kg (Mus musculus [7]): 17.8%
Cc1ccc(-c2cc(C(=O)NCc3cccnc3)n(Cc3ccccc3)n2)cc1 | Non-toxic | Non-toxic | 57 ×10⁻² mm | 25.3% | 24.4% | 16.5% | 57 ×10⁻² mm | 43 ×10⁻² mm | 36 ×10⁻² mm |  | 74.9% | 43.1% | 41.9% | 31.7% | 100% | 105% | 93.4% | 86.4% | 82.6% | 65.1% | inhibition in vivo at 100 mg/kg (Mus musculus [7]): 3.7%
Cc1ccc(-c2cc(C(=O)NNc3ccc4ccccc4n3)n(Cc3ccccc3)n2)cc1 | Non-toxic | Non-toxic | 42 ×10⁻² mm | 42.8% | 44.4% | 24.1% | 44 ×10⁻² mm | 39 ×10⁻² mm | 29 ×10⁻² mm | 48.9% |  |  |  |  |  |  |  |  |  |  | inhibition in vivo at 100 mg/kg (Mus musculus [7]): 23%
Cc1ccc(-c2cc(C(=O)Oc3ccc(C(C)(C)C)cc3)n(Cc3ccccc3)n2)cc1 | Non-toxic | Non-toxic | 38 ×10⁻² mm | 62% | 50% | 35% | 29 ×10⁻² mm | 33 ×10⁻² mm | 40 ×10⁻² mm | 10.9% | 83.2% | 62.9% | 112% | 120% | 94.9% | 93.2% | 103% | 94.9% | 81.4% | 119% | 
Cc1ccc(-c2cc(C(=O)Oc3ccc(C(C)C)cc3)n(Cc3ccccc3)n2)cc1 | Non-toxic | Non-toxic | 53 ×10⁻² mm | 31.5% | 29% | 24% | 53 ×10⁻² mm | 39 ×10⁻² mm | 38.3 ×10⁻² mm | 33% | 87.2% | 50.2% | 126% | 115% | 90.5% | 80.3% | 94.2% | 105% | 69.7% | 71.9% | 
CCCCCCCOc1ccc(OC(=O)c2cc(-c3ccc(C)cc3)nn2Cc2ccccc2)cc1 | Non-toxic | Non-toxic | 68 ×10⁻² mm |  | 10% | 9% | 80 ×10⁻² mm | 47 ×10⁻² mm | 42.5 ×10⁻² mm |  | 109% | 63.2% | 108% | 118% | 97.6% | 100% | 84.3% | 76.3% | 85.3% | 115% | 
Cc1ccc(-c2cc(C(=O)Oc3ccc(Oc4ccc(C(F)(F)F)cc4)cc3)n(Cc3ccccc3)n2)cc1 | Non-toxic | Non-toxic | 58 ×10⁻² mm | 14.1% | 22.2% | 17% | 66 ×10⁻² mm | 43 ×10⁻² mm | 40 ×10⁻² mm | 56.9% | 89.1% | 50.3% | 86.3% | 114% | 107% | 63.6% | 121% | 111% | 77.4% | 75.5% | 
CCOC(=O)C1CCN(C(=O)c2cc(-c3ccc(C)cc3)n(Cc3ccccc3)n2)CC1 | Non-toxic | Non-toxic | 32 ×10⁻² mm | 59.8% | 57.8% | 13.9% | 31 ×10⁻² mm | 44 ×10⁻² mm | 40 ×10⁻² mm | 83.2% | 66.4% | 71.8% | 78.8% | 88.2% | 94.5% | 77.8% | 41.6% | 56.5% | 47.1% | 121% | 
Cc1ccc(-c2cc(C(=O)Oc3ccc(C(C)C)cc3)nn2Cc2ccccc2)cc1 | Non-toxic | Non-toxic | 37 ×10⁻² mm | 47.8% | 50.4% | 18.7% | 40 ×10⁻² mm | 42 ×10⁻² mm | 27 ×10⁻² mm | 45.7% | 79.6% | 66.2% | 83.6% | 120% | 82.6% | 79.6% | 97% | 90.1% | 54.6% | 106% | inhibition in vivo at 100 mg/kg (Mus musculus [7]): 27.4%
Cc1ccc(-c2cc(C(=O)N3CCN(Cc4ccc(C(C)C)cc4)CC3)n(Cc3ccccc3)n2)cc1 | Non-toxic | Non-toxic | 55 ×10⁻² mm | 30.4% | 26.7% | 4.1% | 53 ×10⁻² mm | 49 ×10⁻² mm | 44.2 ×10⁻² mm |  | 84.8% | 51% | 104% | 128% | 66.6% | 94.4% | 109% | 101% | 60.6% | 74% | 
CC(=O)Oc1ccccc1C(=O)O [ASPIRIN] |  |  |  |  |  |  |  |  |  | 68.9% |  |  |  |  |  |  |  |  |  |  | 
